Measured values from the METLIN SMRT retention time set (Domingo-Almenara et al. 2019).

Experiment: gradient 5% acetonitrile 3 min, to 50% in 2 min, to 85% in 15 min, held 3 min, 100 µL/min
Details: column: Zorbax Extend-C18 2.1 x 50 mm; eluents: water / acetonitrile, 0.1% formic acid
Procedure, shortened: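 Using water and acetonitrile that each contained 0.1% formic acid, mixtures of ~100 pure standards were separated at 100 μL/min on a Zorbax Extend-C18 column (2.1 × 50 mm, 1.8 μm). The HPLC fed a quadrupole time-of-flight mass spectrometer working in positive and negative ionization mode, with dead and dwell volumes of 40 μL and 900 μL. Data were acquired over 3 months. Retention time was read from computationally picked adduct peaks after manual inspection of each.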

| SMILES | RP-LC retention time [s] |
| --- | --- |
| COc1ccc(-c2nnc(COc3ccc(NC(=O)CSc4ccncc4)cc3)o2)cc1 | 650 |
| CCNC(=O)c1nc(C(=O)NCCc2ccc(Cl)cc2)cs1 | 842 |
| COc1ccc(CNc2nc3ccncc3n(Cc3ccccc3)c2=O)cc1 | 710 |
| Cc1c(CN2CC(F)(F)C[C@H]2COc2ccncc2)cnn1C | 502 |
| NC(=O)C(=O)c1cn(Cc2ccccc2)c2ccccc12 | 872 |
| CCN(CC)CCOc1ccc(C(=C(Cl)c2ccccc2)c2ccccc2)cc1 | 1010 |
| CCCCC(=O)N1c2nc(-c3ccc(F)cc3)nn2C2(CCCCC2)[C@@H]2CCCC[C@@H]21 | 1210 |
| O=C(NC1CCCN(c2cc(-c3ccccc3)[nH]n2)C1)c1ccc2[nH]ccc2c1 (centres undefined) | 729 |
| Cc1cc(C)c2[nH]c3c(c(=O)c2c1)CN(CC(=O)NCc1ccc(F)cc1)CC3 | 620 |
| COC(=O)c1ccc(OC)c(Cn2cnc3c(-c4ccccc4C)csc3c2=O)c1 | 1060 |
| CCC(C)N(CCNC(=O)Cn1c(=O)oc2ccccc21)Cc1ccco1 (centres undefined) | 631 |
| COc1cc(NC(=O)NCCc2c(C)nn(C)c2C)cc(OC)c1OC | 610 |
| CCCN(CC1CCOC1)C(=O)c1cccc(Br)c1 (centres undefined) | 852 |
| COc1ccc(CN2CC(C(=O)NC3(c4nc(C)no4)CCCCC3)CC2=O)cc1 (centres undefined) | 706 |
| COc1ccc(-c2cc3nn(CC(=O)NC(C)(C)C)c(=O)n3c(C)n2)cc1 | 842 |
| CCOC(=O)N1CCN(Cc2c(NC(=O)c3ccccc3)sc(C)c2C)CC1 | 630 |
| Cc1ccc(CNC(=O)C2(C)CCCN(C(=O)Nc3ccc(C)c(F)c3)C2)cc1 (centres undefined) | 857 |
| Cc1cc(-c2ccc3c(c2)CCN3C(=O)c2cccc(NC(=O)c3ccco3)c2)on1 | 841 |
| CCCCC(=O)Nc1cnc(N(CC)CC(=O)C(C)(C)C)c(C(=O)O)c1 | 628 |

| SMILES | RP-LC retention time [s] |
| --- | --- |
| Cc1nc(C2CC23CCN(S(=O)(=O)c2cccc(F)c2)CC3)no1 (centres undefined) | 888 |
| COc1cc(CNC(=O)C2CCCN(c3cc(=O)n(C)c(=O)n3C)C2)cc(OC)c1OC (centres undefined) | 636 |
| Cc1ccnc(N2CCC(C(=O)NCc3ccc4c(c3)OCO4)CC2)n1 | 658 |
| CN(C)c1ccc(-c2nc3ccc(Cl)cn3c2Nc2ccc3c(c2)OCCO3)cc1 | 744 |
| COCCN1C(=O)CCc2cc(NS(=O)(=O)c3ccc(C)cc3C)ccc21 | 816 |
| CCCN1CCN(CCCNc2nc(-c3ccc(Cl)cc3)nc3ccccc23)CC1 | 584 |
| Cc1ccc2nc(-c3ccc(O)cc3)c(Nc3ccc(Cl)cc3)n2c1 | 671 |
| CCCCn1c(=O)c2ccccc2n(Cc2nc(-c3cc(OC)cc(OC)c3)no2)c1=O | 1160 |
| O=C(NCCc1ccccc1)c1ccc2c(c1)CCN2C(=O)C1CC1 | 814 |
| CC(C)CCN1C[C@@H](CO)[C@H](c2nc(-c3cccnc3)no2)C1 | 583 |
| O=C1NCCCCCCN(C(=O)Nc2ccccc2F)[C@H]2CCC[C@@H]12 | 805 |
| COc1ccc(C)cc1NC(=O)C1CCN(C(=O)C(C)(C)C)CC1 | 784 |
| Cc1[nH]c(/C=C2\C(=O)Nc3ccc(S(=O)(=O)Cc4c(Cl)cccc4Cl)cc32)c(C)c1C(=O)N1CCC[C@@H]1CN1CCCC1 | 787 |
| O=C(NCCc1c[nH]c2ccc(F)cc12)c1cncc(Br)c1 | 796 |
| COCCn1ncc(N2CCC(C(=O)Nc3ccc(F)cc3F)C2)cc1=O (centres undefined) | 666 |
| COc1ccc(-c2nc3ccccn3c2Nc2ccc(C)cc2)cc1 | 701 |
| CSc1ccc(CNC(=O)c2cc3n(n2)CCCN(Cc2ccccc2)C3=O)cc1 | 895 |
| Cc1sc(-c2noc(C3CC3)n2)cc1S(=O)(=O)N1CCC(C(=O)NC2CCC(C)CC2)CC1 (centres undefined) | 1120 |
| CC(C)n1cc(C2=CCN(S(=O)(=O)c3cccc4cccnc34)CC2)c2cccnc21 | 993 |

| SMILES | RP-LC retention time [s] |
| --- | --- |
| CC(C)CN(Cc1cccnc1)C1CN(S(=O)(=O)Cc2ccccc2)C1 | 719 |
| Cc1ccc(-c2nc3ncccn3c2Nc2cccc(Cl)c2C)cc1 | 915 |
| Cc1ccc(NS(=O)(=O)c2cc(-c3cc(C(F)(F)F)on3)cs2)c(Br)c1 | 1160 |
| O=C(Nc1cnc(N2CCOCC2)nc1)c1ccc(Br)cc1 | 810 |
| Cc1noc(C)c1CN1CCCC(C)(c2nc(-c3ccccc3)no2)C1 (centres undefined) | 623 |
| CC(CNC(=O)Cc1csc2nc(-c3ccccc3)cn12)c1ccccc1 (centres undefined) | 841 |
| Cc1csc(-c2cc(S(=O)(=O)NCC3CC3)cn2CC(=O)N2CCCCC2)n1 | 905 |
| Cc1ccc(N2CCN(C(=O)C3CC(=O)N(c4cccc(NC(=O)C(C)C)c4)C3)CC2)cc1 (centres undefined) | 802 |
| Cc1ccc(Nc2nc(-c3ccccc3)cs2)cc1 | 1170 |
| O=C(NC1CCN(c2cc(-c3cccs3)[nH]n2)C1)c1cccc(F)c1 (centres undefined) | 715 |
| CC1=C(c2cccc(Cl)c2)S(=O)(=O)N=C1N1CCCN(C(=O)c2ccncc2)CC1 | 677 |
| CSc1ncn(-c2nc(NC(C)C)nc(NC(C)C)n2)n1 | 875 |
| O=C(Nc1ccccc1F)N1CCC(n2cnc3ccccc3c2=O)CC1 | 712 |
| CCOC(C)C(/C=N/NC(N)=S)=N/NC(N)=S (centres undefined) | 654 |
| COCCCNC(=O)C1CCN(C(=O)c2ncn3c2COC(c2ccc(F)cc2)C3)CC1 (centres undefined) | 626 |
| CCOc1ccc(CCNc2nc(-c3ccc(OC)c(OC)c3)no2)cc1 | 967 |
| CC(C)n1cnc2cc(CNC(=O)c3cccs3)ccc21 | 608 |
| COc1ccc(CCN2CN=C(Nc3nc(C)c4cc(C)ccc4n3)NC2)cc1OC | 722 |

The remaining lines, values ahead:

| RP-LC retention time [s] | SMILES |
| --- | --- |
| 842 | Cc1cc(C)cc(NC(=O)N2CCC3(CC2)NC(=O)c2ccccc2O3)c1 |
| 712 | CC(C)n1cc(C(=O)O)c(S(=O)(=O)N2CCCC2)n1 |
| 813 | Cn1c(=O)c2c(nc3n(-c4ccc(O)cc4)c(-c4ccc(Cl)cc4)cn23)n(C)c1=O |
| 925 | Cc1ccc(Cn2nc3c(S(=O)(=O)N4CCCCC4)cccn3c2=O)cc1 |
| 703 | CCC(C)C(NC(=O)c1ccsc1)C(=O)Nc1nc2ccccc2[nH]1 (centres undefined) |
| 921 | O=[N+]([O-])c1ccc(-c2nc(NC3CCCCC3)c3ccccc3n2)cc1 |
| 999 | CCCN1C(=O)c2ccccc2Sc2cc(-c3noc(CNC(=O)c4cccs4)n3)ccc21 |
| 658 | CC(C)CCNC(=O)N1CCN(c2cc(-c3ccccc3)ncn2)CC1 |
| 875 | Cc1nn(CC(=O)N2CCCC(C)C2)c(=O)c2nc(-c3ccccc3)sc12 (centres undefined) |
| 860 | O=C(CCn1nnc2cc(-c3noc(Cc4ccccc4Br)n3)ccc21)N1CCOCC1 |
| 740 | Cc1cccc(CNC(=O)CN2CCN(Cc3ccc(F)cc3)C(=O)C2=O)c1 |
| 762 | COc1ccc(CN2CCc3nc(N4CCN(c5ccccc5OC)CC4)ncc3C2)cc1 |
| 734 | CCn1cc(S(=O)(=O)N2CCOc3ccc(NC(=O)C4CC4)cc3C2)cn1 |
| 854 | Cc1ccc(-c2ncc3c(=O)n(CC(=O)NC(C)C)c(=O)n(C)c3n2)cc1 |
| 847 | Cc1ccc(CNC(=O)c2cc3c(s2)CCN(C(=O)c2ccc(F)cc2)C3)o1 |
| 806 | CN(c1cccc(NC(=O)C2CCN(S(=O)(=O)Cc3ccccc3)CC2)c1)S(C)(=O)=O |
| 1040 | Cc1cc(NC(=O)C(=O)c2ccc[nH]2)ccc1Br |

| RP-LC retention time [s] | SMILES |
| --- | --- |
| 734 | O=C(Cc1ccsc1)N1CCC(c2noc(C3CC3)n2)C1 (centres undefined) |
| 690 | Cc1ccc(-c2nc3cnccn3c2NCCC(=O)NCC(C)C)cc1 |
| 708 | CCC(=O)Nc1ccc(-n2cnc(C(=O)N3CCN(c4ccccc4)CC3)c2)nc1 |
| 829 | O=C(C1CCCN(c2ncnc3c2nc2n3CCCCC2)C1)N1CCN(c2ccc(F)cc2)CC1 (centres undefined) |
| 1060 | CCOC(=O)c1cc(S(=O)(=O)N2CCCC2C(=O)Nc2cccc3c2CCCC3)cn1C (centres undefined) |
| 638 | CCC(C)NC(=O)C1CCN(c2cnc(N3CCOCC3)nc2)CC1 (centres undefined) |
| 891 | O=C(C1CCC1)N1CC(c2nc(-c3ccc(F)cc3)no2)C2(CCOCC2)C1 (centres undefined) |
| 750 | CCN1CCCn2cc(S(=O)(=O)NCc3ccccc3Cl)cc2C1=O |
| 632 | Cn1c(=O)c2c(C(=O)NCC3CCN(Cc4cccc(Cl)c4)CC3)cc(=O)n(C)c2n(C)c1=O |
| 1090 | CC1CCCN(c2nn(CC(=O)Nc3ccc(F)cc3)c(=O)c3ccccc23)C1 (centres undefined) |
| 769 | CCOC(=O)C1CCN(S(=O)(=O)c2cc3c4c(c2)CCC(=O)N4CCC3)CC1 |
| 648 | CCc1nc2cc3c(cc2n1CC(=O)Nc1ccc2c(c1)OCCCO2)OCCO3 |
| 1050 | CCN(CC)S(=O)(=O)c1ccc2c(c1)N(CC(=O)NC1CCCCCC1)C(=O)C1CCCCN21 (centres undefined) |
| 613 | Cc1cc(=O)n(CC(=O)NCc2ccc(Cl)cc2)c(N)n1 |
| 1040 | Cc1nc(-c2csc(S(=O)(=O)N3CCCC(C(=O)Nc4cccc(Cl)c4)C3)c2)no1 (centres undefined) |
| 954 | CCc1ccccc1NS(=O)(=O)c1ccc(CN2C(=O)c3ccccc3C2=O)cc1 |
